Measurements taken from PMC8515607 (ACS Omega, 2021).
Read-outs that look alike come from different tables or passages of the source.

How the values were obtained:
BALB/3T3 = assay: In vitro antiproliferative activity, SRB assay, normal fibroblasts BALB/3T3; assay type: cell-based; details: Mus musculus, BALB/3T3, normal murine embryonic fibroblasts, 72 h, mean ± SD
LoVo [1] = assay: cells; assay type: cell-based, human; details: for IC50: Homo sapiens, LoVo, 72 h, read-out: LoVo IC50 (nM); for LoVo SI: selectivity index = IC50 BALB/3T3 / IC50 LoVo
A549 [2] = assay: cells; assay type: cell-based, human; details: for A549 SI: selectivity index = IC50 BALB/3T3 / IC50 A549
MCF-7 [3] = assay: cells; assay type: cell-based, human; details: for IC50: Homo sapiens, MCF7, 72 h, read-out: MCF-7 IC50 (nM); for MCF-7 SI: selectivity index = IC50 BALB/3T3 / IC50 MCF-7
LoVo/DX = assay: cells; assay type: cell-based, human; details: for LoVo/DX RI: resistance index = IC50 LoVo/DX / IC50 LoVo; for LoVo/DX SI: selectivity index = IC50 BALB/3T3 / IC50 LoVo/DX
[4] = tested on: A549, MCF-7, and LoVo cells; assay: Antiproliferative activity, values quoted jointly for three tumor lines; assay type: cell-based, human; details: summary of Table 1; for IC50: Homo sapiens, read-out: IC50 against A549, MCF-7, and LoVo cells (span over the three lines)
Source text: The A549 and MCF7 cell lines were purchased from the European Collection of Authenticated Cell Cultures (ECACC, Salisbury, U.K., 86012804 and 86012803). The LoVo cell line was purchased from the American Type Culture Collection (CCL-229, ATCC, Manassas, VA), and LoVo/DX by courtesy of Prof. E. Borowski (Technical University of Gdańsk, Gdańsk, Poland). The BALB/3T3 cell line was purchased from the American Type Culture Collection (CCL-163, ATCC, Manassas, VA). All of the cell lines are maintained in the Institute of Immunology and Experimental Therapy (IIET), Wroclaw, Poland.
A549 cells were cultured in a mixture of OptiMEM and Roswell Park Memorial Institute (RPMI) 1640 (1:1) medium (IIET, Wroclaw, Poland), supplemented with 10% fetal bovine serum HyClone (GE Healthcare) and 2 mM L-glutamine (Sigma-Aldrich, Germany). MCF7 cells were cultured in a mixture of Eagle’s medium (IIET, Wroclaw, Poland), supplemented with 10% fetal bovine serum, 2 mM L-glutamine, and insulin (Sigma-Aldrich, Germany). LoVo and LoVo/DX cells were cultured in F12K medium (Corning), supplemented with 10% fetal bovine serum HyClone (GE Healthcare) and 0.1 μg/mL doxorubicin (Accord) for LoVo/DX. BALB/3T3 fibroblasts were cultured in Dulbecco’s medium (Gibco), supplemented with 10% fetal bovine serum (GE Healthcare) and 2 mM L-glutamine (Sigma-Aldrich, Germany). All culture media contained antibiotics: 100 U/mL penicillin (Polfa-Tarchomin, Poland) and 0.1 mg/mL streptomycin (Sigma-Aldrich, Germany). All cell lines were cultured during entire experiment in humid atmosphere at 37 °C and 5% CO2.
All cell lines were exposed to each tested agent at different concentrations in the range 100–0.00001 μg/mL for 72 h. The cells were also exposed to the reference drug cisplatin (Teva Pharmaceuticals, Poland) and doxorubicin (Accord Healthcare Limited, U.K.). Additionally, all cell lines were exposed to dimethyl sulfoxide (DMSO) (solvent used for tested compounds) (POCh, Poland) at concentrations corresponding to those present in tested agents dilutions. After 72 h, sulforhodamine B (SRB) assay was performed.[57]
After 72 h of incubation with the tested compounds, the cells were fixed in situ by gently adding cold 50% trichloroacetic acid (TCA) (POCh, Poland) and were incubated at room temperature for 1 h. Then, the wells were washed four times with water and air-dried. Next, 0.1% solution of sulforhodamine B (Sigma-Aldrich, Germany) in 1% acetic acid (POCh, Poland) was added to each well and the plates were incubated at room temperature for 0.5 h. After incubation time, unbound dye was removed by washing plates four times with 1% acetic acid, whereas stain bound to cells was solubilized with 10 mM Tris base (Sigma-Aldrich, Germany). Absorbance of each solution was read at Synergy H4 Hybrid Multi-Mode Microplate Reader (BioTek Instruments) at the 540 nm wavelength.
IC50 values were calculated in Excel sheet using formulas adapted by Mateusz Psurski fromCheburator 0.4, Dmitry Nevozhay software (version 1.2.0 software by Dmitry Nevozhay, 2004–2014, http://www.cheburator.nevozhay.com, freely available) for each experiment.[58] Compounds at each concentration were tested in triplicate in a single experiment, and each experiment was repeated at least three times independently.

MCF-7 [5] = tested on: MCF-7; parameters: method as in PMID 32295119; details: amide directly on C7; cited from earlier work
A549 [6] = tested on: A549; parameters: method as in PMID 32295119; details: amide directly on C7; cited from earlier work
LoVo [7] = tested on: LoVo; parameters: method as in PMID 32295119; details: cited from earlier work
A549 and MCF7 cells = tested on: A549 and MCF7 cells; parameters: method as in PMID 32295119; details: read-out: IC50 A549 and MCF7 of 7-amide (span); amide directly on C7; cited from earlier work
[8] = tested on: human colon adenocarcinoma cell lines; details: cited from earlier work
[9] = tested on: all cells used, both cancerous and normal; assay: Antiproliferative activity, values quoted jointly for all cell lines tested; assay type: cell-based
Source text: The A549 and MCF7 cell lines were purchased from the European Collection of Authenticated Cell Cultures (ECACC, Salisbury, U.K., 86012804 and 86012803). The LoVo cell line was purchased from the American Type Culture Collection (CCL-229, ATCC, Manassas, VA), and LoVo/DX by courtesy of Prof. E. Borowski (Technical University of Gdańsk, Gdańsk, Poland). The BALB/3T3 cell line was purchased from the American Type Culture Collection (CCL-163, ATCC, Manassas, VA). All of the cell lines are maintained in the Institute of Immunology and Experimental Therapy (IIET), Wroclaw, Poland. […]
After 72 h of incubation with the tested compounds, the cells were fixed in situ by gently adding cold 50% trichloroacetic acid (TCA) (POCh, Poland) and were incubated at room temperature for 1 h. […] Absorbance of each solution was read at Synergy H4 Hybrid Multi-Mode Microplate Reader (BioTek Instruments) at the 540 nm wavelength.
IC50 values were calculated in Excel sheet using formulas adapted by Mateusz Psurski fromCheburator 0.4, Dmitry Nevozhay software (version 1.2.0 software by Dmitry Nevozhay, 2004–2014, http://www.cheburator.nevozhay.com, freely available) for each experiment.[58] […]

[10] = Homo sapiens, A549, 72 h, read-out: A549 IC50 (nM), 72 h exposure, SRB, mean ± SD
[11] = Homo sapiens, LoVo/DX, 72 h, read-out: LoVo/DX IC50 (nM), 72 h exposure, SRB, mean ± SD

Compound | IC50 (BALB/3T3) | IC50 (LoVo [1]) | LoVo SI (LoVo [1]) | IC50 (A549 [2]; [10]) | A549 SI (A549 [2]) | IC50 (MCF-7 [3]) | MCF-7 SI (MCF-7 [3]) | IC50 (LoVo/DX; [11]) | LoVo/DX RI (LoVo/DX) | LoVo/DX SI (LoVo/DX) | IC50 [4] | also measured
CNc1ccc2c(cc1=O)[C@@H](n1cc(CNC(=O)Oc3ccccc3)nn1)CCc1cc(OC)c(OC)c(OC)c1-2 [Compound 43] | 11 ± 0.4 nM | 4.7 ± 1.1 nM | 2.3 | 4.1 ± 0.6 nM | 2.7 | 2.8 ± 1.2 nM | 3.9 | 920 ± 150 nM | 200 | <0.1 |  | SI for A549, MCF-7, and LoVo cells (span) [4]: 2.1–3.9
CCCCCCCCCCCCCCCC(=O)N[C@H]1CCc2cc(OC)c(OC)c(OC)c2-c2ccc(NC)c(=O)cc21 [7-palmitamide] |  |  |  |  |  |  |  |  |  |  |  | SI MCF7 of 7-amide (MCF-7 [5]): 1.2; SI A549 of 7-amide (A549 [6]): 0.9; SI LoVo of 7-amide (LoVo [7]; amide directly on C7): 8.8; IC50 (LoVo [7]; read-out: IC50 LoVo of 7-amide, amide directly on C7 of 10-N-methylaminocolchicine): 62 nM; IC50 (A549 and MCF7 cells): 460 to 620 nM
CNc1ccc2c(cc1=O)[C@@H](n1cc(CNC(=O)OCC(C)C)nn1)CCc1cc(OC)c(OC)c(OC)c1-2 [Compound 40] | 3.9 ± 0.2 nM | 1.7 ± 0.2 nM | 2.3 | 1.2 to 1.9 nM | 3.3 | 1.2 ± 0.3 nM | 3.3 | 310 ± 61 nM | 180 | <0.1 | 1.2 to 1.7 nM | IC50 (A549 [2]; read-out: A549 IC50, 72 h exposure, SRB, mean ± SD): 1.2 ± 0.1 nM; SI for A549, MCF-7, and LoVo cells (span) [4]: 2.1–3.9
CNc1ccc2c(cc1=O)C(NCc1ccccc1Cl)CCc1cc(OC)c(OC)c(OC)c1-2 (centres unmarked) [7-N-(2-chlorobenzyl)-10-methylaminocolchcine] |  |  |  |  |  |  |  |  |  |  |  | calculated selectivity coefficients [8]: around 90
CNc1ccc2c(cc1=O)[C@@H](N=[N+]=[N-])CCc1cc(OC)c(OC)c(OC)c1-2 [Compound 4, 7-azido-10-N-methylaminocolchicine] | 2.1 ± 1.2 nM | 1.1 ± 0.5 nM | 1.9 | 1.4 ± 0.5 nM | 1.5 | 1.5 ± 0.3 nM | 1.4 | 1.7 ± 0.6 nM | 1.5 | 1.2 |  | SI (selectivity coefficients, all cancer lines) [9]: < 2; IC50 ([9]; cancerous and normal lines, read-out: IC50 against all cells used (span)): 1.1 to 2.1 nM
CCOC(=O)c1cn([C@H]2CCc3cc(OC)c(OC)c(OC)c3-c3ccc(NC)c(=O)cc32)nn1 [Compound 19] | 24 ± 11 nM | 13 ± 3.5 nM | 1.8 | 17 ± 0.8 nM | 1.4 | 11 ± 3.7 nM |  | 220 ± 23 nM | 17 | 0.1 | 10 to 25 nM | 
CNc1ccc2c(cc1=O)[C@@H](n1cc(CN)nn1)CCc1cc(OC)c(OC)c(OC)c1-2 [Compound 8] | 400 ± 37 nM | 140 ± 56 nM | 2.9 | 70 ± 23 nM | 5.7 | 34 ± 16 nM | 11.8 | 12000 ± 2400 nM | 86 | <0.1 | 30 to 140 nM | 
CNc1ccc2c(cc1=O)[C@@H](n1cc(CNC(=O)C(Cl)Cl)nn1)CCc1cc(OC)c(OC)c(OC)c1-2 [Compound 31] | 9.9 ± 3 nM | 3.1 ± 1.1 nM | 3.2 | 3.3 ± 1.1 nM | 3.0 | 3 ± 1.5 nM | 3.3 | ≤ 1000 nM | 270 | <0.1 | 2.7 to 6.3 nM | IC50 (LoVo/DX; read-out: LoVo/DX IC50, 72 h exposure, SRB, mean ± SD): 830 ± 220 nM
CNc1ccc2c(cc1=O)[C@@H](n1cc(CNC(=O)CCCCCl)nn1)CCc1cc(OC)c(OC)c(OC)c1-2 [Compound 32] | 22 ± 5.6 nM | 5 ± 0.4 nM | 4.4 | 4.4 ± 1.3 nM | 5.0 | 2.7 ± 1.1 nM | 8.1 | 2800 ± 200 nM | 560 | <0.1 | 2.7 to 6.3 nM | 
